{"source": "patent US6448027B1", "about": "“Method for specific measurement of acid phosphatase derived from osteoclasts” (FALCO biosystems Ltd., priority 1999, dated 2002)", "key": {"serum": {"test_system": "serum", "test": "Effect of heparin on serum acid phosphatase activity", "format": "biochemical, human", "settings": "FIG. 3", "experimental": "Blood samples collected from 516 healthy subjects aged 5 to 79 years (210 males and 306 females) were coagulated at room temperature for 2 to 4 hours and centrifuged at 1,000×g at room temperature for 10 minutes. Serum thus separated was transferred into 1.5 ml tubes and stored at −80° C. until use."}, "bone extract": {"test_system": "bone extract", "test": "Effect of heparin on bone extract acid phosphatase activity", "format": "biochemical", "settings": "FIG. 3; bovine tibia extract", "experimental": "Bone extract was prepared according to the method described in Nakanishi, M., Yoh, K., Uchida, K., Maruo, S., Matuoka, A., Clin. Chem., 1998, 44, 221-225. Bovine tibia after removal of soft tissue was cut into small cubes. The marrow and blood were removed, pulverized and homogenized in a solution containing Triton x-100, potassium chloride, phenylmethylsulfonyl fluoride, benzamidine and aminocaproic acid. The extract was collected by centrifugation at 10,000×g for 20 minutes at 4° C. and stored at −80° C. until use."}, "[1]": {"biological_target": "T1, Band 5a tartrate-resistant acid phosphatase (Homo sapiens, UniProt P13686)", "T1 construct": "These fractions containing peak III and IV were used as Band 5a and Band 5b tartrate-resistant acid phosphatase, respectively; from tissue; host or cells: children's serum, CM-Sepharose cation-exchange fraction (peak III)", "T1 sequence (P13686 22-325)": "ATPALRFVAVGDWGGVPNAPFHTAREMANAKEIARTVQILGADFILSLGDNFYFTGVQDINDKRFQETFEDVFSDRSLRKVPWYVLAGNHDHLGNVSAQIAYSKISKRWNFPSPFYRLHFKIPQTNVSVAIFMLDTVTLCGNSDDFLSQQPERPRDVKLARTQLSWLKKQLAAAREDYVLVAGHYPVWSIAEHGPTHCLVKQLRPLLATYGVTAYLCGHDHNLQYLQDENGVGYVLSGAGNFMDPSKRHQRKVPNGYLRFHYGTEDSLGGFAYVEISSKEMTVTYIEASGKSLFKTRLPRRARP", "test": "Effect of heparin on Band 5a tartrate-resistant acid phosphatase (CM-Sepharose peak III)", "format": "biochemical", "experimental": "(§1) The CM-Sepharose was packed into glass tubing (0.9 cm i.d.; length, 60 cm) and washed with acetate buffer (10 mmol/L, pH 5.0). The serum sample (children's serum, 5 ml) was adjusted to pH 5.0 by adding acetic acid and the coagulated proteins were removed by centrifugation at 20,000×g for 15 minutes. The supernatant fraction was passed through the column at 0.5 ml/minute. The enzyme, which was retained on the column, was then eluted with a liner gradient of sodium chloride: 0 to 1 mol/L in elution buffer (299 ml, acetate buffer, 10 mmol/L, pH 5.0). The fractionated serum was subjected to the method described in the above general method to measure tartrate-resistant fluoride-sensitive acid phosphatase activity (the value obtained by subtracting the value obtained with measurement solution 2 from the value obtained with measurement solution 1). Acid phosphatase activity was measured similarly by using measurement solution added polybrene which was antagonist of heparin instead of heparin.\nThese fractions containing peak III and IV were used as Band 5a and Band 5b tartrate-resistant acid phosphatase, respectively, in the following Examples. […]\nTartrate-resistant fluoride-sensitive acid phosphatase activity was measured using Band 5a and 5b tartrate-resistant acid phosphatases separated by CM-Sepharose to determine the effect of pH on activity. […]"}, "[2]": {"test_system": "tartrate-resistant fluoride-sensitive acid phosphatases other than Band 5b", "test": "TrFsACP activity of CM-Sepharose fractions of serum with heparin or polybrene in the reaction buffer", "format": "biochemical, human", "settings": "CM-Sepharose fractions of children's serum; FIG. 1", "experimental": "Using CM-Sepharose, Band 5a and Band 5b tartrate-resistant acid phosphatase were separated and collected.\nas §1\nWhen polybrene was added to the reaction buffer, at least four peaks of tartrate-resistant fluoride-sensitive acid phosphatase activity were observed (FIG. 1, I, II, III and IV). But only one peak (IV) was observed when heparin was added to the reaction buffer. […]"}, "[3]": {"test_system": "Band 5b tartrate-resistant acid phosphatase", "test": "Effects of other materials on Band 5b TrACP activity in serum of healthy subjects", "format": "biochemical, human", "settings": "for Band 5b TrACP activity (%): control activity taken as 100%, serum of healthy subjects; for Effect of addition on Band 5b tartrate-resistant acid phosphatase activity: summary in words of Table 1, 1-10 mmol/L", "experimental": "(1) Formulation of Compositions\n(a) A Composition Comprising Tartaric Acid and Heparin (Reaction Buffer Solution 1)\n(b) A composition comprising tartaric acid, heparin and fluoride (reaction buffer solution 2)\n(2) Measurement (an Example Using Conventional Automatic Analyzer, Cobas® Fara, Baxter Ltd.)\n(§2) To a cuvette is added 150 µl of reaction buffer solution 1 or reaction buffer solution 2 and, after 20 seconds, 15 µl of sample (serum) is added. The mixture is incubated at 37° C. for 5 minutes and then 60 µl of the substrate solution is added to start the enzyme reaction (the reaction mixture is 15 times as much as the amount of the sample (=(150 μ1+15 μ1+60 μ1)/15 μ1). The change in absorbance at 340 nm is monitored at 20 seconds intervals for 5 minutes. The amount of change in absorbance per one minute (the amount of change in absorbance in the enzyme reaction per unit time) is obtained from a linear part of the change in absorbance. The amount of change in absorbance per one minute in blank is obtained by the same procedure as the above except for adding physical saline or purified water instead of the sample.\nThe activity of osteoclast-derived acid phosphatase located at Band 5b is obtained by subtracting the activity value obtained by using the composition comprising tartaric acid, heparin and fluoride of the reaction buffer solution 2 from the activity value obtained by using the composition comprising tartaric acid and the inhibitor to acid phosphatases located at Band 5 other than Band 5b (in Examples, heparin is used) of the reaction buffer solution 1. […] The concentration, formulation, amount and the like of the above composition are adjusted according to a particular kind of automatic analyzer and measurement (kind and concentration of the substrate and the like) used.\n(§3) Activity (U/L)=[(amount of change in absorbance per unit time in enzyme reaction−amount of change in absorbance in blank)×liquid amount on enzyme reaction×10^6]÷[sample amount×molar absorbance coefficient×cell optical path length]"}, "[4]": {"test_system": "Band 5b tartrate-resistant acid phosphatase", "settings": "read-out: Km value for DCAPP of Band 5b tartrate-resistant acid phosphatase activity; substrate DCAPP", "experimental": "as §2, with “sample. […]” for “sample.”\nas §3"}, "[5]": {"settings": "compound 1 mmol/L in reaction buffer solution"}, "[6]": {"settings": "compound 5 mmol/L in reaction buffer solution"}, "[7]": {"settings": "compound 10 mmol/L in reaction buffer solution"}}, "data": [{"compound": "heparin", "values": [{"measurement": "Effect of heparin on serum", "setting": "serum", "value": "slightly inhibited"}, {"measurement": "Effect of heparin on bone extract", "setting": "bone extract", "value": "slightly inhibited"}, {"measurement": "Effect of heparin on Band 5a tartrate-resistant acid phosphatase", "setting": "[1]; FIG. 3", "value": "significantly inhibited"}, {"measurement": "Band 5a tartrate-resistant acid phosphatase activity after addition of heparin", "setting": "[1]; pH 6.6, 0.05% heparin in reaction mixture, FIG. 4", "value": "zero level"}, {"measurement": "Effect of heparin on tartrate-resistant fluoride-sensitive acid phosphatases other than Band 5b", "setting": "[2]", "value": "inhibits"}]}, {"compound": "O[C@H](CS)[C@H](O)CS", "note": "(racemic) [Dithiothreitol]", "values": [{"measurement": "Band 5b TrACP activity (%)", "setting": "[3]; [5]", "value": 93, "unit": "%"}, {"measurement": "Band 5b TrACP activity (%)", "setting": "[3]; [6]", "value": 69, "unit": "%"}, {"measurement": "Band 5b TrACP activity (%)", "setting": "[3]; [7]", "value": 57, "unit": "%"}, {"measurement": "Effect of addition on Band 5b tartrate-resistant acid phosphatase activity", "setting": "[3]", "value": "inhibited enzyme activity"}]}, {"compound": "CC(=O)c1cc(Cl)c(OP(=O)(O)O)c(Cl)c1", "note": "[DCAPP, 2,6-dichloro-4-acetylphenyl phosphate]", "values": [{"measurement": "Km", "setting": "[4]", "value": 4.7, "unit": "mM"}]}, {"compound": "O=C1O[C@H]([C@@H](O)CO)C(O)=C1O", "note": "[Ascorbic acid]", "values": [{"measurement": "Band 5b TrACP activity (%)", "setting": "[3]; [5]", "value": 97, "unit": "%"}, {"measurement": "Band 5b TrACP activity (%)", "setting": "[3]; [6]", "value": 103, "unit": "%"}, {"measurement": "Band 5b TrACP activity (%)", "setting": "[3]; [7]", "value": 103, "unit": "%"}, {"measurement": "Effect of addition on Band 5b tartrate-resistant acid phosphatase activity", "setting": "[3]", "value": "no effect"}]}, {"compound": "O=C(O)CN(CCN(CC(=O)O)CC(=O)O)CC(=O)O", "note": "[EDTA]", "values": [{"measurement": "Band 5b TrACP activity (%)", "setting": "[3]; [5]", "value": 95, "unit": "%"}, {"measurement": "Band 5b TrACP activity (%)", "setting": "[3]; [6]", "value": 96, "unit": "%"}, {"measurement": "Band 5b TrACP activity (%)", "setting": "[3]; [7]", "value": 93, "unit": "%"}, {"measurement": "Effect of addition on Band 5b tartrate-resistant acid phosphatase activity", "setting": "[3]", "value": "no effect"}]}]}
